In patent US20020054880A1, “Anti-inflammatory, tolerogenic and immunoinhibiting properties of carbohydrate binding-peptides” (priority 1992, published 2002):
Where two headings read alike, the source gives them in different places.

Assays:
[1] = target: αNeuAc(2-3)βGal(1-3)βGlcNAc-BSA (Bos taurus, UniProt P02769); details: SLe^c; conjugate 50 μg/mL; 0.5 μg SPYGRC-b, 1 hour
Description: (§1) Binding assays were carried out essentially as described above using microtiter wells that were coated with 50 μl of BSA glycoconjugate (50 μg/ml) in 50 mM sodium phosphate buffer (pH 6.8) containing 5 mM MgCl2 nd 15 mM NaN3 for 16 hours at 4° C. The solution was removed by aspiration and replaced with 100 μl of 1% BSA in PBS containing 0.05% Tween 20 (PBST) and incubated at room temperature for an additional 2-3 hours. […] After incubating for 1 hour, the binding reaction was stopped by aspirating the solutions and the plate was washed with PBST (4×300 μl). Avidin-peroxidase (100 μl of a 1/3000 dilution of a 1 mg/ml solution in PBST) was added and incubated for an additional 1 hour. After washing the wells as described above, the substrate solution (1 mM ABTS in 5 mM citrate buffer, pH 4.2, containing 0.1% hydrogen peroxide, v/v) was added and the plates were incubated for 30 minutes. Binding assays for each BSA conjugate were done in triplicate and background binding was measured in wells coated with BSA only.

[2] = target: αNeuAc(2-3)βGal(1-3)βGlcNAc-BSA (1-4) αFuc (Bos taurus, UniProt P02769); details: SLe^a(C19.9); conjugate 50 μg/mL; 0.5 μg SPYGRC-b, 1 hour
Description: as §1

[3] = target: αNeuAc(2-3)βGal(1-4)βGlcNAc-BSA (Bos taurus, UniProt P02769); details: conjugate 50 μg/mL, 0.5 μg SPYGRC-b, 1 hour
Description: as §1

[4] = target: αNeuAc(2-3)βGal(1-4)βGlcNAc-BSA (1-3) αFuc (Bos taurus, UniProt P02769); details: SLe^x; conjugate 50 μg/mL; 0.5 μg SPYGRC-b, 1 hour
Description: as §1

[5] = target: T1, PT-biotin binding to asialofetuin (Bos taurus, UniProt P12763); assay: PT-biotin binding to asialofetuin, binding inhibition assay; parameters: species or system Bordetella pertussis; details: peptide mg/mL: S2PL 1.2, ACS2P1 1.0, S2P2 1.1, S2P3 0.51, S2P4 0.98, S2P6 0.85, S3P1 3.2, S3P2 3.1, S3P3 4.5, S3P4 3.3, S3P5 0.48, SPYGRC 4.4; + enhancement, − inhibition
T1 construct: made in house
T1 sequence (P12763 19-359): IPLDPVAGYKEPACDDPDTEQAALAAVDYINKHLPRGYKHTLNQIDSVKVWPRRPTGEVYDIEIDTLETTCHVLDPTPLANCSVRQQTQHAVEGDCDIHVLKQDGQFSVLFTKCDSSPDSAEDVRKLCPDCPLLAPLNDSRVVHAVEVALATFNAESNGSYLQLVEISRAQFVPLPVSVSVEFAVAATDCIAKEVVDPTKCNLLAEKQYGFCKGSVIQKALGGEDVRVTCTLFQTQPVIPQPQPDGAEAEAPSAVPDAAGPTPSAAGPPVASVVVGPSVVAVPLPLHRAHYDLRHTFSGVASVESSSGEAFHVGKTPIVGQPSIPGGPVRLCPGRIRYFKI
Description: (§2) Peptides ranging in concentration from 0.5 to 4.5 mg/ml in PBS (40 μl) were added to each well and PT-biotin (10 μl containing 10 ng in PBS) was then added to the microtiter wells. […] Horseradish peroxidase-conjugated avidin (100 μl, 1/3000 dilution in PBST to a concentration of 0.3 μg/ml) was then added to the wells, and the plates were incubated at ambient temperature for 1 hour. […] Color development was recorded at 405 nm using a Titertek Multiskan MC plate reader. […] Binding assays for each peptide were done in duplicate. Binding inhibition experiments utilizing SNA-, WGA-, and MAL-biotin were performed as described above using 10 ng of each biotinylated lectin in PBS.
(§3) Binding assays for each inhibitor concentration were done at least in duplicate, and the average value varied less than 15%.

[6] = target: T2, PT-biotin binding to fetuin (Bos taurus, UniProt P12763); assay: PT-biotin binding to fetuin, binding inhibition assay; parameters: species or system Bordetella pertussis; details: + enhancement, − inhibition
T2 construct: purchased Sigma Chemical Company (fetuin); Connaught Center for Biotechnology Research (PT)
T2 sequence (P12763 19-359): T1 sequence (P12763 19-359)
Description: as §2, §3

Balb/c mice [7] = assay: DTH inflammatory response, mouse footpad swelling assay; assay type: in vivo; details: 100 μg peptide into the tail vein 5 hours after challenge with 20 μg OVA; FIG. 2
Description: DTH inflammatory responses were measured using the mouse footpad swelling assay as described by Smith and Ziola^64. Briefly, groups of Balb/c mice (about 19-20 grams each) were immunized with 100 μg of the OVA antigen containing 20μg of the adjuvant (DDA—dimethyl-dioctadecylammonium bromide) which also induces a strong inflammatory DTH response. Seven days later, each group of mice was footpad-challenged with 20 μg of the OVA antigen (without adjuvant). The resulting inflammatory footpad swelling was measured with a Mitutoyo Engineering micrometer 24 hours after challenge.
To assess the effect of different peptides on the inflammatory DTH response, groups of mice received 100 μg of the following peptides- ACS2P1 (2275), SPYGRC (2283), and S3P9a. These peptides were injected as a solution into the tail vein, 5 hours after challenge. Control groups were left untreated or received 100 μL of phosphate-buffered saline (PBS).

[8] = target: T3, WGA-biotin binding to fetuin (Bos taurus, UniProt P12763); assay: biochemical; details: + enhancement, − inhibition
T3 sequence (P12763 19-359): T1 sequence (P12763 19-359)
Description: (§4) The solution was removed by aspiration and replaced with 100 μl of 1% BSA in PBS containing 0.05% Tween 20 (PBST). After incubation for 2-4 hours at room temperature, the microtiter wells were washed four times with 300 μl of PBST. Peptides ranging in concentration from 0.5 to 4.5 mg/ml in PBS (40 μl) were added to each well and PT-biotin (10 μl containing 10 ng in PBS) was then added to the microtiter wells. After incubating for 1 hour, the binding reaction was stopped by aspirating the solutions and the plate was washed with PBST (300 μl). Horseradish peroxidase-conjugated avidin (100 μl, 1/3000 dilution in PBST to a concentration of 0.3 μg/ml) was then added to the wells, and the plates were incubated at ambient temperature for 1 hour. After washing the wells as described above, the substrate solution [1 mM ABTS in 5 mM citrate buffer, pH 4.2, containing 0.1% hydrogen peroxide, v/v) was added and the plates were incubated for 30 minutes. Color development was recorded at 405 nm using a Titertek Multiskan MC plate reader. Maximum binding was determined in the absence of peptide, and background binding was measured in wells coated with BSA only. Binding assays for each peptide were done in duplicate. Binding inhibition experiments utilizing SNA-, WGA-, and MAL-biotin were performed as described above using 10 ng of each biotinylated lectin in PBS.

[9] = target: T4, SNA-biotin binding to fetuin (Bos taurus, UniProt P12763); assay: biochemical; details: + enhancement, − inhibition
T4 sequence (P12763 19-359): T1 sequence (P12763 19-359)
Description: as §4

[10] = target: T5, ACS2P1-biotin binding to fetuin (Bos taurus, UniProt P12763); assay: biochemical; details: peptide μM: ACS2P1 4.1, S2P2 42.5, SPYGRC 5520, S2P3 22.4, S2P4 6.0, S2P6 319, S3P1 1142, S3P2 934, S3P3 16.1, S3P4 6.4, S3P5 22.5; ACS2P1-biotin 0.1 μg; − inhibition, + enhancement
T5 construct: purchased Sigma Chemical Company
T5 sequence (P12763 19-359): T1 sequence (P12763 19-359)

Balb/c mice [11] = assay: Persistence of suppression of DTH response on OVA re-challenge at 2 weeks; assay type: in vivo; details: mice treated as in Example 11, re-challenged at 2 weeks; FIG. 3
Description: Identical groups of mice treated with the peptides in Example 11 above, were re-challenged with OVA antigen 2 weeks after primary immunization.

[12] = target: T6, ACS2P1-biotin binding to asialofetuin (Bos taurus, UniProt P12763); assay: Screening of S2 and S3 peptides for inhibition of ACS2P1-biotin binding to asialofetuin; details: peptide μM: ACS2P1 4.1, S2P2 42.5, SPYGRC 5520, S2P3 22.4, S2P4 6.0, S2P6 319, S3P1 1142, S3P2 934, S3P3 16.1, S3P4 6.4, S3P5 22.5; ACS2P1-biotin 0.1 μg; − inhibition, + enhancement
T6 construct: made in house
T6 sequence (P12763 19-359): T1 sequence (P12763 19-359)

[13] = system: pertussis toxin binding to Chinese Hamster ovary (CHO) cell; assay: CHO cell neutralization of pertussis toxin (cell clumping); assay type: cell-based; details: PT 2.4 ng/ml, peptide and PT 1 hour, triplicate
Description: Confluent monolayers of CHO cells were lifted from plastic tissue culture flasks with 0.25% trypsin and suspended at a concentration of 5×10^4 cells/ml in Ham's F12 media containing 10% fetal bovine serum (FBS). 100 μl of the cell suspension was added to 96 well tissue culture plates and were allowed to establish contact with the plastic for 24 to 48 hours. The expended media was then removed and filtered-sterilized peptide 5-fold dilutions ranging in concentration from 300 to 30 femptogram per ml (80 μl) in Ham' F12 media containing FBS were added to the CHO cells. […] The incubation mixtures were gently mixed and incubated at 37° C. for 1 hour in a CO2 incubator. The incubation mixtures were then removed and replaced with fresh media. The tissue culture plates were then incubated for 24 hours at 37° C., fixed with 100% methanol, and stained with Geimsa stain. Control experiments were done in the absence of peptide alone or in the absence of PT. All determinations were done in triplicate. […] The results reported in Table VIII show the maximum peptide concentration required to cause a 50% reduction in CHO cell clumping.

[14] = target: T7, MAL-biotin binding to fetuin (Bos taurus, UniProt P12763); assay: MAL-biotin binding to fetuin, binding inhibition assay; parameters: species or system Maackia amurensis; details: + enhancement, − inhibition
T7 construct: purchased Sigma Chemical Company (fetuin); Boehringer Mannheim (MAL-biotin)
T7 sequence (P12763 19-359): T1 sequence (P12763 19-359)
Description: as §2, §3

[15] = peptide mg/mL: S2PL 1.2, ACS2P1 1.0, S2(14-2.3) 1.0, S2P2 1.1, S2P3 0.51, S2P4 0.98, S2P6 0.85, S3P1 3.2, S3P2 3.1, S3P3 4.5, S3P4 3.3, S3P5 0.48, S3P9a 1.7, SPYGRC 4.4, S2(WGA) 1.0, WGA (62-73) 1.0

αNeuAc(2-3)βGal(1-4)βGlcNAc-BSA, sequence (P02769 25-607): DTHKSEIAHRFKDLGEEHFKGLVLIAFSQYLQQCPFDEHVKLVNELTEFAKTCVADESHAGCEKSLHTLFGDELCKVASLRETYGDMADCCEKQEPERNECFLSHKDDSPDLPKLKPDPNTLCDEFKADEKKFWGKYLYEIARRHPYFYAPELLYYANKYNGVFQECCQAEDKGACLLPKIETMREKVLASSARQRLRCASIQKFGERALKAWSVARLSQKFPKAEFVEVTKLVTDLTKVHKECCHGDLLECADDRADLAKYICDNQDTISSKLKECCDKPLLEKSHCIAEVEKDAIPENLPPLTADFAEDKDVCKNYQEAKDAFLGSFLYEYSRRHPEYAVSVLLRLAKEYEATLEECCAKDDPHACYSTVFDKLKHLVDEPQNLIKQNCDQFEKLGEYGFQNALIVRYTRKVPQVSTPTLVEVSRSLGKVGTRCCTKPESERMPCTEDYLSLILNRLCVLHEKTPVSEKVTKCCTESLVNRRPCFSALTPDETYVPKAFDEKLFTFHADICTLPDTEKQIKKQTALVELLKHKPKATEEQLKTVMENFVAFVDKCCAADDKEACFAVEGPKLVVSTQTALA
αNeuAc(2-3)βGal(1-3)βGlcNAc-BSA (1-4) αFuc, sequence (P02769 25-607): as above
αNeuAc(2-3)βGal(1-3)βGlcNAc-BSA, sequence (P02769 25-607): as above
αNeuAc(2-3)βGal(1-4)βGlcNAc-BSA (1-3) αFuc, sequence (P02769 25-607): as above

BIOTIN-SPYGRC-CO—NH2 [SPYGRC-b]
% Binding Relative to Fetuin of SPYGRC-b (n = 3) [1]: 97 ± 12%
% Binding Relative to Fetuin of SPYGRC-b (n = 3) [2]: 103 ± 8%
% Binding Relative to Fetuin of SPYGRC-b (n = 3) ([3]; SLacNAc (table row r10)): 120 ± 7%
% Binding Relative to Fetuin of SPYGRC-b (n = 3) ([3]; SLacNAc (table row r12)): 122 ± 5%
% Binding Relative to Fetuin of SPYGRC-b (n = 3) [4]: 120 ± 4%

SPYGRC-CO—NH2
Percent Changes in Binding Activity PT/asialo-fetuin [5]: +7 ± 9%
% Changes in Binding Activity, PT-b to fetuin ([6]; SPYGRC peptide 4.4 mg/ml): +34 ± 2%
Percent Changes in Binding Activity PT/fetuin [6, 15]: +34 ± 2%
effect on DTH inflammatory response (footpad swelling 24 hours after challenge), in words (Balb/c mice [7]): effective in reducing a DTH response in mice
% Changes in Binding Activity, WGA-b to fetuin ([8]; SPYGRC peptide 4.4 mg/ml): +7 + 3%
Percent Changes in Binding Activity WGA/fetuin ([8]; peptide mg/mL: S2PL 1.2, ACS2P1 1.0, S2(14-2.3) 1.0, S2P2 1.1, S2P3 0.51, S2P4 0.98, S2P6 0.85, S3P1 3.2, S3P2 3.1, S3P3 4.5, S3P4 3.3, S3P5 0.48, SPYGRC 4.4, S2(WGA) 1.0, WGA (62-73) 1.0): +7 ± 3%
% Changes in Binding Activity, SNA-b to fetuin ([9]; SPYGRC peptide 4.4 mg/ml): −2 ± 1%
Percent Changes in Binding Activity SNA/fetuin [9, 15]: −2 ± 2%
Percent Change in Binding Activity Fetuin [10]: −24 ± 2%
DTH response (footpad swelling) on later re-challenge with OVA antigen, in words (Balb/c mice [11]): reduced immune response
Percent Change in Binding Activity Asialofetuin [12]: −54 ± 3%
Maximal Inhibitory Concentration for Greater than 50% Inhibition [13]: 480 pg/mL
% Changes in Binding Activity, MAL-5 to fetuin ([14]; SPYGRC peptide 4.4 mg/ml): −16 ± 0%
Percent Changes in Binding Activity MAL/fetuin [14, 15]: −16 ± 0%
